Laboratory results: ChEMBL document CHEMBL1153779, “Tyrosinase-inhibitory constituents from the twigs of Cinnamomum cassia” (J Nat Prod, 2009)

molecular target: T1, Tyrosinase (Agaricus bisporus, UniProt O42713)
T1 sequence (O42713 whole entry): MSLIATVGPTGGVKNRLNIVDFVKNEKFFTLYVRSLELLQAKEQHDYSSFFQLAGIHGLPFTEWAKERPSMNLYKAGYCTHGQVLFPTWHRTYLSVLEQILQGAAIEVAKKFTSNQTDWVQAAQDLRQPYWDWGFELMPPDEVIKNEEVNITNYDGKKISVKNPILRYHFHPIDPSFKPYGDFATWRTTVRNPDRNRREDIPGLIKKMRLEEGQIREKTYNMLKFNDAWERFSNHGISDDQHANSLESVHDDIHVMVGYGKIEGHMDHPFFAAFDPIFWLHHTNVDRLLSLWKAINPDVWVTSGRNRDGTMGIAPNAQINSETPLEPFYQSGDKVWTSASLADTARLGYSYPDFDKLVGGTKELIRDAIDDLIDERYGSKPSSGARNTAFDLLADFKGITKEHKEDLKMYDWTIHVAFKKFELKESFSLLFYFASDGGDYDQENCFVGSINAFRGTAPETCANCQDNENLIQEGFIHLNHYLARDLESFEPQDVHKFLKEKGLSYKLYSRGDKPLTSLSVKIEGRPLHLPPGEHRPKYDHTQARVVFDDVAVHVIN
Description: Inhibition of mushroom tyrosinase after 10 mins by spectrophotometry

Row | SMILES | IC50
1 | OC[C@H]1O[C@@H](OCCc2ccccc2)[C@H](O)[C@@H](O)[C@@H]1O[C@@H]1OC[C@](O)(CO)[C@H]1O | 710 µM
2 | O=C/C=C/c1ccccc1 | 520 µM
3 | C[C@@H]1O[C@@H](OC[C@H]2O[C@@H](Oc3ccccc3/C=C/CO)[C@H](O[C@@H]3[C@@H](OCc4ccccc4)O[C@@H](CO[C@@H]4OC[C@](O)(CO)[C@H]4O)[C@H](O)[C@H]3O)[C@@H](O)[C@@H]2O)[C@H](O)[C@H](O)[C@H]1O [CINNACASSINOL] | 940 µM
4 | OC/C=C/c1ccccc1 [CINNAMIC ALCOHOL] | > 10000 µM
5 | O=C(CCc1ccccc1O)O[C@@H]1O[C@H](CO)[C@@H](O)[C@H](O)[C@H]1O [DIHYDROCINNACASSIDE] | 670 µM
6 | Oc1ccc(O)cc1 [HYDROQUINONE] | 4210 µM
7 | COC(=O)CCc1ccccc1O[C@@H]1O[C@H](CO)[C@@H](O)[C@H](O)[C@H]1O [METHYL DIHYDROMELILOTOSIDE] | 630 µM
8 | O=C(O)/C=C/c1ccccc1O [O-COUMARIC ACID] | 670 µM
9 | O[C@@H]1[C@@H](O)[C@@H](OC/C=C/c2ccccc2)O[C@H](CO[C@@H]2OC[C@H](O)[C@H](O)[C@H]2O)[C@H]1O [ROSAVIN] | > 10000 µM

The next lines start with the values.

Row | IC50 | SMILES
10 | 260 µM | COc1c(O)cccc1/C=C/C=O
11 | 420 µM | COc1ccccc1/C=C/C=O
12 | 470 µM | O=C/C=C/c1ccccc1O [2-HYDROXYCINNAMALDEHYDE]
13 | 240 µM | COc1cc(/C=C/C=O)ccc1O [CONIFERYL ALDEHYDE]
14 | 570 µM | O=C(O)CCc1ccccc1O[C@@H]1O[C@H](CO)[C@@H](O)[C@H](O)[C@H]1O [DIHYDROMELILOTOSIDE]
